Measured values reported in PMC10185516, “Synthesis, in vitro inhibitor screening, structure–activity relationship, and molecular dynamic simulation studies of novel thioquinoline derivatives as potent α-glucosidase inhibitors” (Scientific Reports, 2023).
Where two headings read alike, the source gives them in different places.

Legend:
[1] = target: T1, α-glucosidase enzyme (EC3.2.1.20) (Saccharomyces cerevisiae, UniProt P38158); assay: biochemical; format: biochemical
T1 construct: purchased Sigma-Aldrich
Description: α-glucosidase enzyme (EC3.2.1.20, Saccharomyces cerevisiae, 20 U/mg) and substrate (p-nitrophenyl glucopyranoside) were purchased from Sigma-Aldrich. α-glucosidase was dissolved in potassium phosphate buffer (50 mM, pH = 6.8) to obtain the initial activity of 1 U/ml. Then, 20 µl of this enzyme solution was added to 135 µl of potassium phosphate buffer and 20 µl of test compound at various concentrations in DMSO. After 10 min incubation at 37 °C, 25 µl of the substrate at a final concentration of 4 mM was added to the mixture and allowed to incubate at 37 °C for 20 min. Then, the change in absorbance was measured at 405 nm spectroscopically. […] The percentage of inhibition for each entry was calculated by using the following formula: \%Inhibition=Abs control-Abs sample/Abs control×100 IC50 values were obtained from the nonlinear regression curve using the Logit method[15],[29].

[2] = target: α-glucosidase; conditions: cited from earlier work
[3] = target: T2, α-glucosidase (Saccharomyces cerevisiae, UniProt P38158); assay: Enzyme kinetic studies (Lineweaver–Burk plot, secondary plot); format: biochemical
T2 construct: purchased Sigma-Aldrich
Description: A Lineweaver–Burk plot was generated to identify the type of inhibition and the Michaelis–Menten constant (Km) value was determined from the plot between the reciprocal of the substrate concentration (1/[S]) and reciprocal of enzyme rate (1/V) over various inhibitor concentrations.

[4] = set-up: method as in PMID 29980114; conditions: at the tested concentrations; cited from earlier work
[5] = previously reported aryl-hydrazide inhibitors, Fig. 1, read-out: IC50
[6] = previously reported inhibitors, Fig. 1, recent research

T1 sequence (P38158 whole entry): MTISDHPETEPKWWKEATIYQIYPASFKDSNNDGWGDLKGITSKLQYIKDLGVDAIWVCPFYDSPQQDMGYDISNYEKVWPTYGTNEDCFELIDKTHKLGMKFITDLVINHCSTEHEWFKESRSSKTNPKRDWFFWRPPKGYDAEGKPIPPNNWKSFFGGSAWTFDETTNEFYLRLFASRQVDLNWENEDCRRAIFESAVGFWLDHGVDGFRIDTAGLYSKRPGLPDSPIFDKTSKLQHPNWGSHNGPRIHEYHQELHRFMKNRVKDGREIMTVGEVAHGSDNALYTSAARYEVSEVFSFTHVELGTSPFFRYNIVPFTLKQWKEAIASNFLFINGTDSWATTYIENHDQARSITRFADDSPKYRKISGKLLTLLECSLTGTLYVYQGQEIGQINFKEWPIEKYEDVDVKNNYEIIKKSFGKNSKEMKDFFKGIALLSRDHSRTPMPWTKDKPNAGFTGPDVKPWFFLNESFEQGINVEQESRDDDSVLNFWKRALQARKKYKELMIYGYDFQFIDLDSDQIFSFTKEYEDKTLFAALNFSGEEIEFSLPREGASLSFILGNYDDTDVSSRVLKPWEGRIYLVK
T2 sequence (P38158 whole entry): as above

Molecule `O=C(CSc1nc2ccccc2cc1C=NNC(=O)c1ccccc1)Nc1ccc(Br)cc1` [Compound 9f, 2-((3-((2-Benzoylhydrazineylidene)methyl)quinolin-2-yl)thio)-N-(4-bromophenyl)acetamide] has an IC50 [1] of 352.4 ± 1.1 µM and a melting point of 254 to 257 °C.
In the case of `O=C(N/N=C/c1cccc(F)c1)c1ccc2nc(-c3ccccc3)c(-c3ccccc3)nc2c1` [F], the IC50 [2, 5] is listed as 111 ± 6 µM.
For `O=C(O)c1ccc2ccccc2n1` [A], the IC50 [2, 6] is given as 9.1 ± 2.3 µg/mL.
With `Cc1cccc(C)c1NC(=O)CSc1nc2ccccc2cc1/C=N/NC(=O)c1ccccc1` [Compound 9m, 2-((3-((2-Benzoylhydrazineylidene)methyl)quinolin-2-yl)thio)N(2,6dimethylphenyl)acetamide] the IC50 ([1]; α-glucosidase inhibition, mean ± SD, read-out: IC50) was 14 ± 0.6 µM, the mode of inhibition ([3]; Lineweaver–Burk plot, Km increased, Vmax unchanged) was “competitive” and the Ki ([3]; from plot of Km versus inhibitor concentration, read-out: Ki (inhibition constant)) was 18 µM.
Work on `COc1ccc(NC(=O)CSc2nc3ccccc3cc2C=NNC(=O)c2ccccc2)cc1` [Compound 9j, 2-((3-((2-Benzoylhydrazineylidene)methyl)quinolin-2-yl)thio)-N-(4-methoxyphenyl)acetamide] yielded an IC50 [1] of 24.7 ± 0.3 µM and a melting point of 241 to 243 °C.
For `O=C(CSc1nc2ccccc2cc1C=NNC(=O)c1ccccc1)Nc1ccc(F)cc1` [Compound 9c, 2-((3-((2-Benzoylhydrazineylidene)methyl)quinolin-2-yl)thio)-N-(4-fluorophenyl)acetamide], the IC50 [1] was 46 ± 0.5 µM and the melting point was 271 to 273 °C.
For `COc1ccc2nc3cc(Cl)ccc3c(SCC(=O)Nc3ccc(C)cc3)c2c1` [D], the IC50 ([2]; previously reported inhibitor and its positive control, read-out: IC50) is listed as 80 ± 2 µM and the toxicity [4] is listed as “no toxicity”.
Work on `O=C(CSc1nc2ccccc2cc1C=NNC(=O)c1ccccc1)Nc1ccc(Cl)cc1` [Compound 9e, 2-((3-((2-Benzoylhydrazineylidene)methyl)quinolin-2-yl)thio)-N-(4-chlorophenyl)acetamide] yielded an IC50 [1] of 234.9 ± 0.9 µM and a melting point of 262 to 264 °C.
For `O=C(O)c1cnc2ccccc2c1` [B], the IC50 [2, 6] is listed as 10.6 ± 1.4 µg/mL.
`Cc1cccc(NC(=O)CSc2nc3ccccc3cc2C=NNC(=O)c2ccccc2)c1C` [Compound 9l, 2-((3-((2-Benzoylhydrazineylidene)methyl)quinolin-2-yl)thio)-N-(2,3-dimethylphenyl)acetamide] gave an IC50 [1] of 37.99 ± 0.2 µM and a melting point of 241 to 243 °C.
For `CCc1ccc(NC(=O)CSc2nc3ccccc3cc2C=NNC(=O)c2ccccc2)cc1` [Compound 9k, 2-((3-((2-Benzoylhydrazineylidene)methyl)quinolin-2-yl)thio)-N-(4-ethylphenyl)acetamide], the IC50 [1] was 60.4 ± 0.2 µM and the melting point was 255 to 257 °C.
`Cc1ccc(NC(=O)CSc2nc3ccccc3cc2C=NNC(=O)c2ccccc2)cc1` [Compound 9i, 2-((3-((2-Benzoylhydrazineylidene)methyl)quinolin-2-yl)thio)-N-(p-tolyl)acetamide] showed an IC50 [1] of 305 ± 1.1 µM and a melting point of 254 to 256 °C.
With `O=C(CSc1nc2ccccc2cc1C=NNC(=O)c1ccccc1)Nc1ccccc1` [Compound 9a, 2-((3-((2-Benzoylhydrazineylidene)methyl)quinolin-2-yl)thio)-N-phenylacetamide] the IC50 [1] was 88.5 ± 1.3 µM, the “improvement in inhibitory potency compared to the positive control” value ([1]; versus acarbose) was “approximately nine-fold” and the melting point was 245 to 247 °C.
Work on `O=C(CSc1nc2ccccc2cc1C=NNC(=O)c1ccccc1)Nc1ccc([N+](=O)[O-])cc1` [Compound 9g, 2-((3-((2-benzoylhydrazineylidene)methyl)quinolin-2-yl)thio)-N-(4-nitrophenyl)acetamide] yielded an IC50 [1] of 93.7 ± 1.5 µM and a melting point of 241 to 243 °C.
`Cc1ccccc1NC(=O)CSc1nc2ccccc2cc1C=NNC(=O)c1ccccc1` [Compound 9h, 2-((3-((2-Benzoylhydrazineylidene)methyl)quinolin-2-yl)thio)-N-(o-tolyl)acetamide] gave an IC50 [1] of 141.8 ± 0.6 µM and a melting point of 260 to 263 °C.
For `O=C(N/N=C/c1ccc(Cl)cc1)c1ccc(-c2nc3ccccc3s2)cc1` [E], the IC50 [2, 5] is listed as 83.8 ± 0.89 µM.
Work on `O=C(CSc1nc2ccccc2cc1C=NNC(=O)c1ccccc1)Nc1ccccc1F` [Compound 9b, 2-((3-((2-Benzoylhydrazineylidene)methyl)quinolin-2-yl)thio)-N-(2-fluorophenyl)acetamide] yielded an IC50 [1] of 109.4 ± 0.2 µM and a melting point of 268 to 270 °C.
With `O=C(CSc1nc2ccccc2cc1C=NNC(=O)c1ccccc1)NCc1ccccc1` [Compound 9o, 2-((3-((2-Benzoylhydrazineylidene)methyl)quinolin-2-yl)thio)-N-benzylacetamide] the IC50 [1] was 373.8 ± 0.8 µM and the melting point was 241 to 243 °C.
For `O=C(CSc1nc2ccccc2cc1C=NNC(=O)c1ccccc1)Nc1cccc(Cl)c1` [Compound 9d, 2-((3-((2-Benzoylhydrazineylidene)methyl)quinolin-2-yl)thio)-N-(3-chlorophenyl)acetamide], the IC50 [1] was 193.8 ± 1 µM and the melting point was 255 to 257 °C.
Work on `O=C(CSc1nc2ccccc2cc1C=NNC(=O)c1ccccc1)NCc1ccc(F)cc1` [Compound 9p, 2-((3-((2-Benzoylhydrazineylidene)methyl)quinolin-2-yl)thio)-N-(4-fluorobenzyl)acetamide] yielded an IC50 [1] of 78 ± 2.4 µM and a melting point of 269 to 271 °C.
For `O=C(CSc1nc2ccccc2cc1-c1nc2ccccc2[nH]1)Nc1cccc(Cl)c1` [C], the IC50 ([2]; previously reported inhibitor, Fig. 1, read-out: IC50) is given as 3.2 ± 0.3 µM.
`O=C(CSc1nc2ccccc2cc1C=NNC(=O)c1ccccc1)Nc1ccc2ccccc2c1` [Compound 9n, 2-((3-((2-Benzoylhydrazineylidene)methyl)quinolin-2-yl)thio)-N-(naphthalen-2-yl)acetamide] gave an IC50 [1] of 18.4 ± 0.4 µM and a melting point of 263 to 265 °C.
